Assay results: EPA's ToxValDB 9.5
Several values for one entry are separate records, joined by “and”; a condition that tells them apart may be missing. Equal entries are not always repeated.

Test system: Mus musculus
Details: oral
[1] = developmental, duration: 17 days, gavage, F, CD1, Developmental: Delayed postnatal development [eye opening, preputial separation and vaginal opening] and decreased body weight gain …
[2] = developmental, duration: 18 days, gavage, F, Developmental: Decreased number of live births (36 and 31%) and pup survival at 1.1 and 2.0 mg/kg/day, but not […] / decreased number of …
[3] = short-term, duration: 14 days, gavage, M, BALB/c, Body Weight: ~25% decrease in body weight + Hepatic: Increases in liver weight (~160%) and increases in hepatic triglyceride (~66%) and …
[4] = subchronic, duration: 90 days, gavage, M, Reproductive: Decreased sperm motility, viability, and number / degenerative changes in seminiferous tubules / decreased litter size

SMILES: O=C(O)C(F)(F)C(F)(F)C(F)(F)C(F)(F)C(F)(F)C(F)(F)C(F)(F)C(F)(F)F [Perfluorononanoic acid]
- NOAEL (developmental, duration: 16 days, gavage, M/F, CD1, developmental): 1 mg/kg-day
- LOAEL [1]: 3 mg/kg-day and 5 mg/kg-day
- NOAEL [1]: 1 mg/kg-day
- NOAEL (developmental, duration: 18 days, gavage, F, Body Weight: No alterations in maternal body weight or gestational weight gain + Developmental: No alterations in the number of live pups …): 2 mg/kg-day
- LOAEL [2]: 1.1 mg/kg-day
- NOAEL [2]: 0.83 mg/kg-day
- LOAEL (reproduction developmental, duration: 17 days, gavage, F, CD1, Body Weight: 43% maternal weight loss at GD 13): 10 mg/kg-day
- NOAEL (reproduction developmental, duration: 17 days, gavage, F, CD1, Hepatic: Increases in absolute and relative liver weights in dams on GD 17 and on post-weaning day 28 at ?1 mg/kg/day): 10 mg/kg-day
- NOAEL (reproduction developmental, duration: 18 days, gavage, F, Body Weight: No alterations in maternal body weight or gestational weight gain + Hepatic: Increase in dam liver weight at ?0.83 mg/kg/day): 2 mg/kg-day
- NOAEL (short-term, duration: 7 days, gavage, M, Hepatic: Hepatocellular hypertrophy, steatosis, and increased hepatic triglyceride levels): 10 mg/kg-day
- LOAEL (short-term, duration: 14 days, diet, M/F, CD1, Death: 100% mortality before day 14): 54 mg/kg-day
- NOAEL (short-term, duration: 14 days, diet, M/F, CD1, Hepatic: 50-70% increase in absolute liver weight at ?0.5 mg/kg/day): 5.3 mg/kg-day
- LOAEL [3]: 5 mg/kg-day
- NOAEL [3]: 1 mg/kg-day
- LOAEL (short-term, duration: 14 days, gavage, M, BALB/c, Immunotoxicological: Decreases in the percentages of F4/80+ and CD49b+ cells in the spleen / no alteration in the response of splenic …): 1 mg/kg-day
- NOAEL (subchronic, duration: 90 days, gavage, M, Hepatic: 33% decrease in serum cholesterol): 0.5 mg/kg-day
- LOAEL [4]: 0.5 mg/kg-day
- NOAEL [4]: 0.2 mg/kg-day
